Test results as given in ChEMBL document CHEMBL4406843, “β-Amino acid derivatives as mitochondrial complex III inhibitors of L. donovani: A promising chemotype targeting visceral leishmaniasis” (Eur J Med Chem, 2019).
Activity calls are given as the source filed them. No cut-off for these calls is given here.

Experiments:
[1] = AUC(0 to 24 hrs) in BALB/c mouse at 50 mg/kg, ip by HPLC analysis; assay type: ADME, organism-based; design: dose 50 mg/kg, time < 24 hr, route intraperitoneal; conditions: in vivo
Mus musculus [2] = experiment: Immunostimulatory activity in BALB/c mouse infected with Leishmania donovani promastigotes assessed as induction of TNF-alpha cytokine production at 50 mg/kg administered for 5 days starting at 15 days post infection and measured after 3 to 7 weeks by ELISA; assay type: functional, organism-based
Leishmania donovani [3] = experiment: Inhibition of succinate-ubiquinone oxidoreductase in Leishmania donovani promastigotes mitochondria at 8.1 to 50 uM using succinate as substrate in presence fo DCPIP by photometry analysis
[4] = Cytotoxicity against BALB/c mouse splenocytes assessed as cell viability at 200 uM after 72 hrs by MTT assay relative to control; assay type: cell-based, Splenocyte; conditions: read-out: Activity
[5] = Intrinsic clearance in mouse liver microsomes after 1 hr in presence of NADPH by UPLC analysis; assay type: ADME, Microsome
Leishmania donovani [6] = experiment: Induction of apoptosis in Leishmania donovani promastigotes assessed as necrotic cells at 50 uM after 24 hrs by Annexin-V/propidium iodide staining based flow cytometric method (reference value: 0.06%); assay type: functional
J774 = experiment: Immunostimulatory activity in mouse J774 cells infected with Leishmania donovani promastigotes assessed as increase in IL-2 cytokine production at 50 uM after 48 hrs by ELISA; assay type: functional, cell-based
Mus musculus [7] = experiment: Immunostimulatory activity in BALB/c mouse infected with Leishmania donovani promastigotes assessed as induction of IL-2 cytokine production at 50 mg/kg administered for 5 days starting at 15 days post infection and measured after 3 to 7 weeks by ELISA; assay type: functional, organism-based
[8] = Toxicity in golden hamster infected with Leishmania donovani amastigotes assessed as effect on body weight at 12.5 to 200 mg/kg, ip administered on alternative days for 4 weeks starting at 4 weeks post-infection; assay type: organism-based, Mesocricetus auratus; conditions: in vivo, 672 h
Leishmania donovani [9] = experiment: Induction of membrane depolarization in Leishmania donovani promastigotes assessed as increase in fluorescence at IC50 by DiBAC4 dye based flow cytometry analysis; assay type: functional, organism-based; conditions: TDE = time-dependent effect
Leishmania donovani [10] = experiment: Antileishmanial activity against Leishmania donovani MHOM/IN/80/Dd8 amastigotes harboring luciferase reporter gene infected in mouse J774 cells at 3.12 to 100 uM after 48 hrs by Steady-Glo luminescence assay relative to control; assay type: functional
[11] = Cytotoxicity against African green monkey Vero cells assessed as cell viability at 50 uM by MTT assay relative to control; assay type: cell-based; conditions: chlorocebus sabaeus, read-out: Activity
[12] = Cytotoxicity against African green monkey Vero cells assessed as cell viability up to 100 uM after 72 hrs by MTT assay relative to control; assay type: cell-based; conditions: chlorocebus sabaeus, read-out: Activity

Structure (SMILES): CCOC(=O)C(C(=O)c1ccc(OC)cc1)C(NC(C)=O)c1cccc2ccccc12 (stereo not drawn)
- AUC(0-t) at 24 h [1]: 1280 ng·h/mL
- Activity (Mus musculus [2]): inactive
- inhibition (Leishmania donovani [3]): inactive
- viability at 72 h, 200 µM [4]: > 84.3%
- CLH [5]: 15 µL/min/mg
- Activity (Leishmania donovani [6]): 0.07%
- Activity (J774): inactive
- Activity (Mus musculus [7]): inactive
- Activity [8]: Non-Toxic
- Activity (Leishmania donovani [9]): Tde
- inhibition (INH) (Leishmania donovani [10]): >92%
- viability at 50 µM [11]: 98.7%
- viability at 72 h [12]: > 93%
